This passage reports MIC results from patent US20240425464A1, “Substituted Monohydrazides as Potent Antifungal Agents” (University of Kentucky Research Foundation, priority 2023, published 2024).

Experiment [1] concerns C. auris strain AR Bank #390 (L). As to the kind of experiment: MIC determination by in vitro antifungal assay. The class given is cell-based, Candida auris. The method, then:
(§1) The antifungal agent amphotericin B (AmB) was purchased from VWR (Radnor PA, USA). AmB was dissolved in DMSO at a final concentration of 5 mg/mL and was stored at −20° C., protected from light. Candida albicans American Type Culture Collection (ATCC) 10231 (strain A), C. albicans ATCC 64124 (B), and C. albicans ATCC MYA-2876 (C) were obtained from Utah State University. C. albicans ATCC 90819 (D), C. albicans ATCC MYA-2310 (E), C. albicans ATCC MYA-1237 (F), C. albicans ATCC MYA-1003 (G), Candida glabrata ATCC 2001 (H), Candida krusei ATCC 6258 (I), Candida parapsilosis ATCC 22019 (J), Cryptococcus neoformans ATCC MYA-895 (M), Aspergillus terreus ATCC MYA-3633 (N), and Aspergillus flavus ATCC MYA-3631 (0) were obtained from the American Type Culture Collection (ATCC; Manassas, VA, USA). Aspergillus nidulans ATCC 38163 (P) was obtained from University of Kentucky. Clinically derived Aspergillus fumigatus NRRL 163 (Q), A. fumigatus NRRL 5109 (R), and A. fumigatus NRRL 6113 (S) were obtained from Northern Regional Research Laboratory (NRRL). Candida auris 384 (K), C. auris 390 (L), and fungal strains 381-400 (including 10 C. auris (AR Bank #381-390), 3 Candida duobushaemulonii (AR Bank #391, AR Bank #392, and AR Bank #394), 2 Candida haemulonii (AR Bank #393 and AR Bank #395), 1 Kodameae ohmeri (AR Bank #396), 1 C. krusei (AR Bank #397), 1 Candida lusitaniae (AR Bank #398), and 2 Saccharomyces cerevisiae strains (AR Bank #399 and AR Bank #400)) were part of a larger fungal library from the AR Bank maintained by the Centers for Disease Control and Prevention (CDC; Atlanta, GA, USA). Filamentous fungi and yeasts were cultivated at 35° C. in RPMI 1640 medium (with L-glutamine, without sodium bicarbonate, Sigma-Aldrich, St. Louis, MO) buffered to a pH of 7.0 with 0.165 M morpholinepropanesulfonic acid (MOPS) buffer (Sigma-Aldrich). For cytotoxicity assays, HepG2 and the mouse macrophage cell line J774A.1 were obtained from University of Kentucky. The human embryonic kidney cell line, HEK-293, was bought from the ATCC. Mammalian cells were grown in Dulbecco's Modified Eagle's Medium (DMEM) (from VWR) with 10% fetal bovine serum (FBS) (from VWR) and 1% Pen/Strep (from ATCC). Cell lines were cultured at 37° C. with 5% CO2 and passaged by trypsinization with 0.05% trypsin: 0.53 mM EDTA (from Sigma-Aldrich).
(§2) From the actively growing yeast culture, 100 µL were then transferred to 900 μL of RPMI 1640 medium and re-adjusted to achieve OD600 of 0.12 (˜1×10^6 CFU/mL). The cell suspension was further diluted to achieve 1:100 in RPMI 1640 medium.
(§3) Finally, the activity of these monohydrazides was explored against […] non-Candida strains: Cryptococcus neoformans ATCC MYA-895 (M), Aspergillus terreus ATCC MYA-3633 (N), Aspergillus flavus ATCC MYA-3631 (O), Aspergillus nidulans ATCC 38163 (P), Aspergillus fumigatus NRRL 163 (Q), A. fumigatus NRRL 5109 (R), and A. fumigatus NRRL 6113 (S) (Tables 1A and 1B). The double dilution method was used with concentrations ranging from 0.06 to 31.3 j·tg mL^−1 for monohydrazides 1a-9j, and the commercially available positive antifungal control amphotericin B (AmB).

Experiment [2] deals with Candida auris strain AR Bank #384 (K). Description: MIC determination by in vitro antifungal assay. The class given is cell-based. As for the experimental part: as §1, §2, §3
Setting [3] is: Candidozyma auris, C. auris AR Bank #390 (L), read-out: MIC.
[4] abbreviates: Candidozyma auris, strain L = C. auris AR Bank # 0390 (Tables 1A/1B), read-out: MIC.
The mark [5] stands for this setting: Candidozyma auris, C. auris AR Bank #384 (K), read-out: MIC.
[6] abbreviates: Candidozyma auris, strain K = C. auris AR Bank # 0384 (Tables 1A/1B), read-out: MIC.
The mark [7] stands for this setting: strain L = C. auris AR Bank # 0390 (Tables 1A/1B).
[8] abbreviates: strain K = C. auris AR Bank # 0384 (Tables 1A/1B).
[9] abbreviates: C. auris AR Bank # 390 (L) (Table 2B).
Setting [10] is: C. auris AR Bank # 384 (K) (Table 2B).
[11] abbreviates: Candidozyma auris, C. auris AR Bank # 390 (L) (Table 2B), read-out: MIC.
Where [12] appears, read: Candidozyma auris, C. auris AR Bank # 384 (K) (Table 2B), read-out: MIC.

Values after ≈ are worked out from the molar mass of the structure shown. Like-named read-outs stand apart in the source and are kept apart here.

Turning to `O=C(NNc1ccc(F)cc1F)c1ccccn1` [Compound 2g], the MIC in experiment [1] (setting [3]) stood at 0.12 µg/mL (≈ 0.482 µM); in experiment [1] (setting [4]), 0.12 µg/mL (≈ 0.482 µM); in experiment [2] (setting [5]), 0.49 µg/mL (≈ 1.97 µM); in experiment [2] (setting [6]) it was 0.49 µg/mL (≈ 1.97 µM).

For `O=C(NNc1cc(F)ccc1F)c1ccccn1` [Compound 2h], the MIC in experiment [1] (setting [3]) was determined as 0.98 µg/mL (≈ 3.93 µM); in experiment [1] (setting [4]), 0.98 µg/mL (≈ 3.93 µM); in experiment [2] (setting [5]) it was 1.95 µg/mL (≈ 7.82 µM); in experiment [2] (setting [6]) it was 0.24 µg/mL (≈ 0.963 µM).

On to `O=C(NNc1cc(F)cc(F)c1)c1ccccn1` [Compound 2i], for which the MIC in experiment [1] (setting [3]) was found to be 0.49 µg/mL (≈ 1.97 µM); in experiment [1] (setting [4]), 0.49 µg/mL (≈ 1.97 µM); in experiment [2] (setting [5]), 0.98 µg/mL (≈ 3.93 µM); in experiment [2] (setting [6]), 0.24 µg/mL (≈ 0.963 µM).

Take `O=C(NNc1cc(Cl)cc(Cl)c1)c1ccccn1` [Compound 2j]: the MIC in experiment [1] (setting [3]) was 3.9 µg/mL (≈ 13.8 µM); in experiment [1] (setting [4]), 1.95 µg/mL (≈ 6.91 µM); in experiment [2] (setting [5]) it was 7.8 µg/mL (≈ 27.6 µM); in experiment [2] (setting [6]), 7.8 µg/mL (≈ 27.6 µM).

For `O=C(NNc1cccc(F)c1)c1ccc(F)cn1` [Compound 3a], the MIC in experiment [1] (setting [7]) is listed as 0.98 μg/mL^−1; in experiment [2] (setting [8]), 1.95 μg/mL^−1.

As for `COc1cccc(NNC(=O)c2ccc(F)cn2)c1` [Compound 3c], the MIC in experiment [1] (setting [9]) is listed as 3.9 μg/mL^−1; in experiment [1] (setting [7]), 0.98 μg/mL^−1; in experiment [2] (setting [10]), 0.49 μg/mL^−1; in experiment [2] (setting [8]) it was 1.95 μg/mL^−1.

As to `O=C(NNc1ccc(F)cc1)c1ccc(F)cn1` [Compound 3d], the MIC in experiment [1] (setting [9]) came to 3.9 μg/mL^−1; in experiment [1] (setting [7]), 0.98 μg/mL^−1; in experiment [2] (setting [10]) it was 0.98 μg/mL^−1; in experiment [2] (setting [8]), 3.9 μg/mL^−1.

With `O=C(NNc1ccc(Cl)cc1)c1ccc(F)cn1` [Compound 3e], the MIC in experiment [1] (setting [9]), in experiment [1] (setting [7]), in experiment [2] (setting [10]) and in experiment [2] (setting [8]) was 7.8 μg/mL^−1 each time.

Regarding `COc1ccc(NNC(=O)c2ccc(F)cn2)cc1` [Compound 3f], the MIC in experiment [1] (setting [7]) was 0.49 μg/mL^−1; in experiment [2] (setting [8]) it was 3.9 μg/mL^−1.

Take `O=C(NNc1ccc(F)cc1F)c1ccc(F)cn1` [Compound 3g]: the MIC is 3.9 µg/mL (≈ 14.6 µM) in experiment [1] (setting [11]), 3.9 µg/mL (≈ 14.6 µM) in experiment [1] (setting [4]), 0.98 µg/mL (≈ 3.67 µM) in experiment [2] (setting [12]) and 7.8 µg/mL (≈ 29.2 µM) in experiment [2] (setting [6]).

As to `O=C(NNc1cccc(F)c1)c1ccc(Br)cn1` [Compound 4a], the MIC in experiment [1] (setting [7]) and in experiment [2] (setting [8]) was 1.95 μg/mL^−1 each time.

For `COc1cccc(NNC(=O)c2ccc(Br)cn2)c1` [Compound 4c], the MIC in experiment [1] (setting [4]) is 0.98 µg/mL (≈ 3.04 µM); in experiment [2] (setting [6]) it was 1.95 µg/mL (≈ 6.05 µM).

For the molecule `O=C(NNc1ccc(F)cc1)c1ccc(Br)cn1` [Compound 4d], the MIC in experiment [1] (setting [11]) was 7.8 µg/mL (≈ 25.2 µM); in experiment [1] (setting [4]), 3.9 µg/mL (≈ 12.6 µM); in experiment [2] (setting [12]), 1.95 µg/mL (≈ 6.29 µM); in experiment [2] (setting [6]) it was 7.8 µg/mL (≈ 25.2 µM).

In the case of `COc1ccc(NNC(=O)c2ccc(Br)cn2)cc1` [Compound 4f], the MIC in experiment [1] (setting [4]) and in experiment [2] (setting [6]) was 1.95 µg/mL (≈ 6.05 µM) in each case.

As to `O=C(NNc1ccc(F)cc1F)c1ccc(Br)cn1` [Compound 4g], the MIC in experiment [1] (setting [4]) is 31.3 µg/mL (≈ 95.4 µM); in experiment [2] (setting [6]), 3.9 µg/mL (≈ 11.9 µM).

For `O=C(NNc1cccc(F)c1)c1cccc(F)n1` [Compound 5a], the MIC was 3.9 μg/mL^−1 in experiment [1] (setting [7]) and 1.95 μg/mL^−1 in experiment [2] (setting [8]).

As to `O=C(NNc1ccc(F)cc1)c1cccc(F)n1` [Compound 5d], the MIC in experiment [1] (setting [11]) is 1.95 µg/mL (≈ 7.82 µM); in experiment [1] (setting [4]), 0.98 µg/mL (≈ 3.93 µM); in experiment [2] (setting [12]), 0.49 µg/mL (≈ 1.97 µM); in experiment [2] (setting [6]) it was 1.95 µg/mL (≈ 7.82 µM).
